{"source": "ChEMBL document CHEMBL3046330", "about": "“Synthesis and biological activity of hydrazidehydrazones and their corresponding 3-acetyl-2,5-disubstituted-2,3-dihydro-1,3,4-oxadiazoles” (Med Chem Res, 2012)", "key": {"Candida tropicalis [1]": {"tested_on": "Candida tropicalis", "experiment": "Antifungal activity against Candida tropicalis NRRL Y-12968 at 2000 ug/ml by agar diffusion method", "type": "functional", "settings": "read-out: IZ"}, "Candida albicans [2]": {"tested_on": "Candida albicans", "experiment": "Antifungal activity against Candida albicans clinical isolate after 24 hr by NCCLS broth microdilution method", "type": "functional"}, "SW1353": {"tested_on": "SW1353", "experiment": "Inhibition of PMA-induced NFkappaB activity in Homo sapiens (human) SW1353 cells up to 25 ug/ml incubated for 30 min followed by PMA induction for 8 hr by luciferase reporter gene assay", "type": "cell-based"}, "Fusarium oxysporum": {"tested_on": "Fusarium oxysporum", "experiment": "Antifungal activity against Fusarium oxysporum assessed as growth inhibition at 30 uM after 72 hr by broth microdilution method", "type": "functional", "settings": "read-out: GI"}, "Colletotrichum acutatum": {"tested_on": "Colletotrichum acutatum", "experiment": "Antifungal activity against Colletotrichum acutatum assessed as growth inhibition at 30 uM after 72 hr by broth microdilution method", "type": "functional", "settings": "read-out: GI"}, "HL-60 [3]": {"tested_on": "HL-60", "experiment": "Antioxidant activity in PMA-stimulated Homo sapiens (human) HL60 cells assessed as inhibition of intracellular ROS generation up to 25 ug/ml incubated for 30 min prior to PMA stimulation measured after 30 min by DCFH-DA assay relative to vehicle-treated control", "type": "functional, cell-based"}, "SK-OV-3": {"tested_on": "SK-OV-3", "experiment": "Cytotoxicity against Homo sapiens (human) SKOV3 cells assessed as cell viability up to 25 ug/ml after 48 hr by neutral red assay", "type": "functional, cell-based"}, "Candida albicans [4]": {"tested_on": "Candida albicans", "experiment": "Antifungal activity against Candida albicans clinical isolate at 2000 ug/ml by agar diffusion method", "type": "functional", "settings": "read-out: IZ"}, "Candida tropicalis [5]": {"tested_on": "Candida tropicalis", "experiment": "Antifungal activity against Candida tropicalis NRRL Y-12968 after 24 hr by NCCLS broth microdilution method", "type": "functional", "settings": "NRRL Y-12968, 24 h"}, "Colletotrichum fragariae": {"tested_on": "Colletotrichum fragariae", "experiment": "Antifungal activity against Colletotrichum fragariae at 0.3 to 30 uM after 48 to 72 hr by broth microdilution method", "type": "functional, organism-based"}, "HL-60 [6]": {"tested_on": "HL-60", "experiment": "Cytotoxicity against Homo sapiens (human) HL60 cells", "type": "cell-based"}, "RAW264.7": {"tested_on": "RAW264.7", "experiment": "Cytotoxicity against Mus musculus (mouse) RAW264.7 cells up to 25 ug/ml", "type": "cell-based"}, "Transcription factor Sp1": {"biological_target": "Transcription factor Sp1 (Homo sapiens, UniProt P08047)", "sequence (P08047 whole entry)": "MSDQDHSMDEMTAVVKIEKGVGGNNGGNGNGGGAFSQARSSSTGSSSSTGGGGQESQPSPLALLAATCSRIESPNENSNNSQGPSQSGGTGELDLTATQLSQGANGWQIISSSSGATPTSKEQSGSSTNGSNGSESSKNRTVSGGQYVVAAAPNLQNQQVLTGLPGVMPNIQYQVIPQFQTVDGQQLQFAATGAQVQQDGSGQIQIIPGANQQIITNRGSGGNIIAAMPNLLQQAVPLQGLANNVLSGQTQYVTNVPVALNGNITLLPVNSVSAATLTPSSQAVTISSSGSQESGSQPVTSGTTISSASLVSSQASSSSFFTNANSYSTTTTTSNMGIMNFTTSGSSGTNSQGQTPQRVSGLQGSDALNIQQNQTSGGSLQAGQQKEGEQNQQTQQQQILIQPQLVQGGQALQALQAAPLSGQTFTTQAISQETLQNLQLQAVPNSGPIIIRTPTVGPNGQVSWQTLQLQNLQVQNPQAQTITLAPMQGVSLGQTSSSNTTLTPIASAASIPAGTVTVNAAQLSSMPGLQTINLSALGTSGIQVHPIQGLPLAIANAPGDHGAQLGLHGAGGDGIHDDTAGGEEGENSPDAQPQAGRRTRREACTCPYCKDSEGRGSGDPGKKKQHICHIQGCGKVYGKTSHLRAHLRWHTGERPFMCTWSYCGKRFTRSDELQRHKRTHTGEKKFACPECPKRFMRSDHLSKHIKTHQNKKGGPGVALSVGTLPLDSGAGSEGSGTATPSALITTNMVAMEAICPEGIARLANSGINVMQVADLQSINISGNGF", "experiment": "Inhibition of Sp1 (unknown origin) up to 25 ug/ml by luciferase reporter gene assay"}, "Botrytis cinerea": {"tested_on": "Botrytis cinerea", "experiment": "Antifungal activity against Botryotinia fuckeliana at 0.3 to 30 uM after 48 to 72 hr by broth microdilution method", "type": "functional, organism-based"}, "Candida albicans [7]": {"tested_on": "Candida albicans", "experiment": "Antifungal activity against Candida albicans ATCC 90028 after 24 hr by NCCLS broth microdilution method", "type": "functional", "settings": "ATCC 90028, 24 h"}, "Vero": {"tested_on": "Vero", "experiment": "Cytotoxicity against Chlorocebus aethiops (African green monkey) Vero cells assessed as cell viability up to 25 ug/ml after 48 hr by neutral red assay", "type": "cell-based", "settings": "chlorocebus sabaeus"}, "[8]": {"experiment": "Cytotoxicity against Sus scrofa (pig) LLC-PK11 cells assessed as cell viability up to 25 ug/ml after 48 hr by neutral red assay", "type": "cell-based", "settings": "llc-pk11, 48 h"}, "Phomopsis obscurans": {"tested_on": "Phomopsis obscurans", "experiment": "Antifungal activity against Phomopsis obscurans assessed as growth inhibition at 30 uM after 144 hr by broth microdilution method", "type": "functional", "settings": "Paraphomopsis obscurans, read-out: GI"}, "Candida parapsilosis": {"tested_on": "Candida parapsilosis", "experiment": "Antifungal activity against Candida parapsilosis NRRL Y-12696 after 24 hr by NCCLS broth microdilution method", "type": "functional", "settings": "Lodderomyces parapsilosis, NRRL Y-12696, 24 h"}, "Candida albicans [9]": {"tested_on": "Candida albicans", "experiment": "Antifungal activity against Candida albicans NRRL Y-12983 after 24 hr by NCCLS broth microdilution method", "type": "functional", "settings": "NRRL Y-12983, 24 h"}, "KB": {"tested_on": "KB", "experiment": "Cytotoxicity against Homo sapiens (human) KB cells assessed as cell viability up to 25 ug/ml after 48 hr by neutral red assay", "type": "functional, cell-based"}, "Pichia kudriavzevii": {"tested_on": "Pichia kudriavzevii", "experiment": "Antifungal activity against Pichia kudriavzevii NRRL Y-7179 after 24 hr by NCCLS broth microdilution method", "type": "functional", "settings": "NRRL Y-7179, 24 h"}, "[10]": {"tested_on": "Colletotrichum gloeosporioides", "experiment": "Antifungal activity against Colletotrichum gloeosporioides assessed as growth inhibition at 30 uM after 72 hr by broth microdilution method", "type": "functional", "settings": "read-out: GI"}, "Cyberlindnera jadinii": {"tested_on": "Cyberlindnera jadinii", "experiment": "Antifungal activity against Cyberlindnera jadinii NRRL Y-900 after 24 hr by NCCLS broth microdilution method", "type": "functional", "settings": "Williopsis jadinii, NRRL Y-900, 24 h"}, "[11]": {"biological_target": "T1, Nitric oxide synthase, inducible (Mus musculus) (UniProt P29477)", "T1 sequence (whole entry)": "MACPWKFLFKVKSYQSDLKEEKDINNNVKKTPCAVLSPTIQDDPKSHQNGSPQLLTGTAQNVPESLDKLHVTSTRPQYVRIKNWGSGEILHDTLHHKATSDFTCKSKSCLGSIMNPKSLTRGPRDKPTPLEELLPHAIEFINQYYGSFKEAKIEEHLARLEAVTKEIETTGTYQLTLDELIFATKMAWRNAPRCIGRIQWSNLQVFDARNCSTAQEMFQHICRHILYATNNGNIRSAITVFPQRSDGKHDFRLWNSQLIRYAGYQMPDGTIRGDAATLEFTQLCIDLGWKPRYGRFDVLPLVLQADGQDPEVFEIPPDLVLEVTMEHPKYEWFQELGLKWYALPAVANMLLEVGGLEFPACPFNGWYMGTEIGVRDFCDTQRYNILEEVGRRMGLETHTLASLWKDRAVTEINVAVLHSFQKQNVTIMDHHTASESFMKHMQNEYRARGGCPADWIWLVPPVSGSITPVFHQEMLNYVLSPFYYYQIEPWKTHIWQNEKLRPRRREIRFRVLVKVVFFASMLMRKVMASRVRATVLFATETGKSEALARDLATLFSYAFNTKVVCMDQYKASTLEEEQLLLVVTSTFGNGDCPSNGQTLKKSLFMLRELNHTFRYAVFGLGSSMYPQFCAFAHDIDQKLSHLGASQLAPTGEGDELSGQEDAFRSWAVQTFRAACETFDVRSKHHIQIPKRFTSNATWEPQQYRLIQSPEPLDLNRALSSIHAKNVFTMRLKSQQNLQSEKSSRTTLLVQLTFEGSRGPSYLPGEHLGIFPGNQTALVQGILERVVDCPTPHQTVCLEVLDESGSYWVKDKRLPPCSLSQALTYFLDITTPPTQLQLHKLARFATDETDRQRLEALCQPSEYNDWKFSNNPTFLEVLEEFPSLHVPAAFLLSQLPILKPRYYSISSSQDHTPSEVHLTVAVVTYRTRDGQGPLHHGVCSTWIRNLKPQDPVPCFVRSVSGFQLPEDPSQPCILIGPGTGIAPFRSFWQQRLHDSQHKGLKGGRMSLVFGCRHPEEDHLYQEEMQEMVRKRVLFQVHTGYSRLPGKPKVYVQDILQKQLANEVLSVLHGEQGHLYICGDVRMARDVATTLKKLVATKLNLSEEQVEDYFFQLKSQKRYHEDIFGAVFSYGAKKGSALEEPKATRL", "experiment": "Inhibition of iNOS in Mus musculus (mouse) RAW264.7 cells assessed as inhibition of LPS-induced nitrite production up to 25 ug/ml incubated for 30 min prior to LPS challenge measured after 24 hr by Griess assay relative to vehicle-treated control", "type": "cell-based"}, "BT-549": {"tested_on": "BT-549", "experiment": "Cytotoxicity against Homo sapiens (human) BT549 cells assessed as cell viability up to 25 ug/ml after 48 hr by neutral red assay", "type": "functional, cell-based"}, "Nakaseomyces glabratus": {"tested_on": "Nakaseomyces glabratus", "experiment": "Antifungal activity against Candida glabrata clinical isolate after 24 hr by NCCLS broth microdilution method", "type": "functional"}, "SK-MEL": {"tested_on": "SK-MEL", "experiment": "Cytotoxicity against Homo sapiens (human) SK-MEL cells assessed as cell viability up to 25 ug/ml after 48 hr by neutral red assay", "type": "functional, cell-based"}}, "note": "Activity calls are given as the source filed them. The calls are words filed in the database; no cut-off is given here."}
{"smiles": "CC(=O)N1N=C(c2ccc(F)cc2)OC1c1ccc(Br)s1", "note": "(stereo not drawn)", "values": [{"measurement": "zone of inhibition at 2000 µg/mL", "setting": "Candida tropicalis [1]", "value": 9, "unit": "mm"}, {"measurement": "MIC", "setting": "Candida albicans [2]", "value": "> 1000", "unit": "µg/mL"}, {"measurement": "inhibition", "setting": "SW1353", "value": "inactive"}, {"measurement": "inhibition of growth at 30 µM", "setting": "Fusarium oxysporum", "value": 67, "unit": "%"}, {"measurement": "inhibition of growth at 30 µM", "setting": "Colletotrichum acutatum", "value": 49, "unit": "%"}, {"measurement": "inhibition", "setting": "HL-60 [3]", "value": "inactive"}, {"measurement": "Activity", "setting": "SK-OV-3", "value": "inactive"}, {"measurement": "zone of inhibition at 2000 µg/mL", "setting": "Candida albicans [4]", "value": 9, "unit": "mm"}, {"measurement": "MIC", "setting": "Candida tropicalis [5]", "value": "> 1000", "unit": "µg/mL"}, {"measurement": "Activity", "setting": "Colletotrichum fragariae", "value": "inactive"}, {"measurement": "IC50", "setting": "HL-60 [6]", "value": 5.9, "unit": "µg/mL"}, {"measurement": "Activity", "setting": "RAW264.7", "value": "Non-toxic"}, {"measurement": "inhibition (INH)", "setting": "Transcription factor Sp1", "value": "Not Active"}, {"measurement": "Activity", "setting": "Botrytis cinerea", "value": "inactive"}, {"measurement": "MIC", "setting": "Candida albicans [7]", "value": "> 1000", "unit": "µg/mL"}, {"measurement": "Activity", "setting": "Vero", "value": "Not Active"}, {"measurement": "Activity", "setting": "[8]", "value": "Not Active"}, {"measurement": "inhibition of growth at 30 µM", "setting": "Phomopsis obscurans", "value": 65, "unit": "%"}, {"measurement": "MIC", "setting": "Candida parapsilosis", "value": "> 1000", "unit": "µg/mL"}, {"measurement": "MIC", "setting": "Candida albicans [9]", "value": "> 1000", "unit": "µg/mL"}, {"measurement": "Activity", "setting": "KB", "value": "inactive"}, {"measurement": "MIC", "setting": "Pichia kudriavzevii", "value": "> 1000", "unit": "µg/mL"}, {"measurement": "inhibition of growth at 30 µM", "setting": "[10]", "value": 66, "unit": "%"}, {"measurement": "MIC", "setting": "Cyberlindnera jadinii", "value": "> 1000", "unit": "µg/mL"}, {"measurement": "inhibition", "setting": "[11]", "value": "inactive"}, {"measurement": "Activity", "setting": "BT-549", "value": "inactive"}, {"measurement": "MIC", "setting": "Nakaseomyces glabratus", "value": "> 1000", "unit": "µg/mL"}, {"measurement": "Activity", "setting": "SK-MEL", "value": "inactive"}]}
